Patent US20040038861A1, “Methods and compositions for normalizing lipid levels in mammalian tissues” (priority 2001, published 2004)

How the values were obtained:
ramp 1/C1ins− receptor = target: T1, ramp 1/C1ins− receptor (Mus musculus, UniProt Q60755+Q9WTJ5); assay: cAMP production in L6 myoblasts co-transfected with ramp 1 and C1ins−; assay type: cell-based, murine; conditions: 15 min, FIG. 10
T1 construct: expressed in transfected cells; host or cells: L6 myoblasts (ATCC), transient co-transfection of pcDNA3.1 plasmids
T1 sequence (Q60755 42-496 isoform Q60755-2 limits assumed): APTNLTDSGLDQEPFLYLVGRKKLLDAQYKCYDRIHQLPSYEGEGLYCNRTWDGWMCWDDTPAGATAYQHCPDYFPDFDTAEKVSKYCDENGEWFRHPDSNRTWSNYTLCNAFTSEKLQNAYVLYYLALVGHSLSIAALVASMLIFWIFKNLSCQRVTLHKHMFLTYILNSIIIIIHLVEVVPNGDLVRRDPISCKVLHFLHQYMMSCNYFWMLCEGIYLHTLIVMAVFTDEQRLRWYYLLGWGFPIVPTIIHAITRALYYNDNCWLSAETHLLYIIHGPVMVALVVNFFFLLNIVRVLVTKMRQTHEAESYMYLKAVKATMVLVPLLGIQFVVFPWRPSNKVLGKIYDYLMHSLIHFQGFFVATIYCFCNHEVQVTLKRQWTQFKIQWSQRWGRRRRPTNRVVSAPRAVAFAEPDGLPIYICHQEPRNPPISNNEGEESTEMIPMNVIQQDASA
T1 sequence (Q9WTJ5 27-148 partner): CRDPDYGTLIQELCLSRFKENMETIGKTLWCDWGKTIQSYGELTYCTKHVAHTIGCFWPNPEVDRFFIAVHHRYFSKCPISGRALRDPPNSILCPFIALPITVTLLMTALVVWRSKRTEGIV
Description: Transfection of L6 myoblasts and cos-7 cells, and analysis of radioligand binding. L6 myoblasts and cos-7 cells were obtained from ATCC. Both cell lines were cultered in Dulbecco's modified Eagle's medium (DMEM; Gibco/BRL, high glucose) supplemented with 10% fetal calf serum (Gibco/BRL, Gaithersburg, Md.), L-glutamine (2 mM), penicillin (100 U/ml; Sigma), streptomycin ([…]; Sigma), saline (0.85%), under 5% CO2/95% air at 37° C. The day before transfection, cells were trypsinised and seeded into six-well plates at a density of 2.9×10^5 cells/well in the same medium. For transfection, cells were incubated with a mixture comprising 1 μg each of Qiagen-purified (Qiagen, Valencia, Calif.) plasmids containing C1ins− with either ramp 1 or ramp 3, and Fugene reagent (6 μl; Boehringer Mannheim) in Opti-Mem I medium (Gibco/BRL). The complex was added with serum to cells, which were incubated for a further 48 h.
Determination of cAMP in cultured cells and soleus muscle strips. cAMP concentration was measured in cells seeded in six-well plates and transfected as described. Following aspiration, cells were incubated for 15 min at room temperature in the presence of stated concentrations of ligands in binding buffer. Isobutylmethylxanthine (Sigma) was added to a final concentration of 0.5 mM together with stated concentrations of peptides, and the reaction terminated by aspiration. Cells were washed with 0.5 ml ice-cold TE buffer (10 mM Tris/HCl, 1 mM EDTA, pH 7.6) and rapidly transferred to eppendorf tubes in 1 ml of the same buffer, then boiled for 5 min. Following centrifugation at 12,000 g for 5 min at 4° C., then cooling on ice, duplicate 50 μl aliquots were analyzed for cAMP using an assay system based on competitive binding (Arnersham Pharmacia) according to the manufacturer's instructions.

soleus muscle [1] = assay: cAMP content of isolated soleus muscle from normal fed rats; assay type: cell-based, rat
Description: (§1) Soleus muscle preparation. All experiments were performed according to protocols approved by the Institutional Animal Ethics Committee. 5-6 week-old male Wistar rats (160 g) were kept on a 12:12-h light/dark cycle, and fed and watered ad libitum. Animals were anaesthetised with 50 mg/kg Nembutal (pentobarbitone sodium), then sacrificed by cervical dislocation. Soleus muscles were dissected under oxygenated KHB (118 mM NaCl, 4.75 mM KCl, 1.2 mM MgSO4, 24.8 mM NaHCO3, 1.2 mM KH2PO4, 2.54 mM CaCl2, 10 mM glucose, pH 7.4) and teased into halves, then incubated as described below.
For the measurement of cAMP in muscle, isolated soleus strips were incubated with stated concentrations of peptides, then lyophilized and deproteinized. Each strip was placed in 400 μl of 0.5 M HClO4 with 5 mM EDTA (phosphodiesterase inhibitor) and sonicated three times in 20 s bursts. Tubes were heated for 3-5 min in boiling water to coagulate protein, then centrifuged (12,000 g, 4° C., 2 min). Supernatant (300 μl) was taken and the pH adjusted to 7.0 with 75 μl of 2 M NH4OH. The samples were refrigerated (4° C., 2 h) to precipitate proteins, then centrifuged under the same conditions as above and 50 μl taken for cAMP measurement.

soleus muscle [2] = assay: Total glycogen content in isolated incubated soleus muscle; assay type: cell-based, rat; conditions: for total glycogen content: 10 nM peptide, 2 h; for EC50: isolated rat soleus muscle
Description: as §1
Total glycogen content was measured in muscle strips by lyophilization followed by hydrolysis of glycogen to D-glucose with amyloglucosidase (Sigma) 20 U/100 ml in 0.2 M sodium acetate/acetic acid buffer, pH 4.8, and expressed as μmol ‘glucosyl’ units/g dry muscle weight. Free glucose in supernatant solutions was measured with a glucose/lactate analyzer (YSI 2300STAT, Yellow Springs Corporation) using D-glucose oxidase immobilized enzyme chemistry.
(§2) Data analysis. One way ANOVA, Dunnett's Multiple Comparisons Test, and unpaired Student's t-tests were used to calculate the statistical significance of differences, as appropriate. Dose-response curves were fitted to a sigmoidal dose-response algorithm, as follows: Y=minimum+(maximum−minimum)/([…] log ^(EC50^−X), for 2-DOG-uptake; and by a four parameter logistic model, Y=minimum+(maximum−minimum)/(1+10 log ^(EC50^−X)Hill-Coefficient) for total glycogen and [^14C]glucose incorporation. Calculations were performed using Prism v2.0 (GraphPad Software, San Diego, Calif.) to derive values for half-maximal effective concentration (EC50). Displacement curves derived for competition of bound radioligand with cold ligand in transfected cells were calculated according to a one site competition fit using Prism v2.0.

soleus muscle [3] = assay: Incorporation of D[14C(U)]glucose into glycogen in isolated incubated soleus muscle; assay type: cell-based, rat; conditions: for rate of D[14C(U)]glucose incorporation into glycogen: 10 nM peptide, 2 h; for EC50: isolated rat soleus muscle
Description: as §1
Measurement of glycogen metabolism in isolated, incubated soleus muscle. […]. Glycogen was precipitated overnight at −20° C. with 96% ethanol (1.2 ml), followed by centrifugation at 8,000 g (15 min, 4° C.). Pellets were washed twice with the same amount of ethanol then dissolved in water (0.6 ml). Aliquots (0.3 ml) were analyzed for D[^14C(U)] glucose content by liquid scintillation spectrometry.
as §2

[4] = absence of insulin, basal 90.8±3.7
[5] = insulin 23.7 nM, insulin alone 138±4.8
[6] = absence of insulin, control 4.8±0.3
[7] = maximal insulin, control 27.6±1.4

Substance | cAMP production in co-transfected myoblasts (ramp 1/C1ins− receptor) | maximal increase in cAMP content (soleus muscle [1]; 10 nM or 100 nM amylin, absence or presence of insulin) | effect of picomolar concentrations on muscle cAMP levels (soleus muscle [1]; FIG. 13C) | total glycogen content (soleus muscle [2]; [4]) | total glycogen content (soleus muscle [2]; [5]) | EC50 (soleus muscle [2]; absence of insulin) | EC50 (soleus muscle [2]; human insulin 23.7 nM) | rate of D[14C(U)]glucose incorporation into glycogen (soleus muscle [3]; [6]) | rate of D[14C(U)]glucose incorporation into glycogen (soleus muscle [3]; [7]) | EC50 (soleus muscle [3]; absence of insulin) | EC50 (soleus muscle [3]; human insulin 23.7 nM) | muscle cAMP content (soleus muscle [1]; CGRP at both 5 nM and 100 nM, absence or presence of insulin (23.7 nM)) | cAMP content, agonist alone (soleus muscle [1]; normal fed, 100 nM CGRP or adrenaline, control 3.9±0.2) | cAMP increase with 1 pM CGRP (soleus muscle [1]; normal fed, 1 hr incubation)
Rat amylin | dose-dependent increases of cAMP production | about 2 fold | no effect | 65.6±9.1 μmol/g dry-wt muscle/h | 86.7 μmol/g dry-wt muscle/h | 8 nM | 8.1 nM | 2.7±0.8 μmol/g dry-wt muscle/h | 16.0±2.5 μmol/g dry-wt muscle/h | 9.4 nM | 9.2 nM | – | – | –
rat CGRP-1 | dose-dependent increases of cAMP production | – | – | 71.4±7.7 μmol/g dry-wt muscle/h | 113±6.9 μmol/g dry-wt muscle/h | 3.2 nM | 4.3 nM | 2.8±0.3 μmol/g dry-wt muscle/h | 13.7±0.7 μmol/g dry-wt muscle/h | 3.1 nM | 0.7 nM | significant increases in muscle cAMP content | 6.9 ± 0.8 pmol/mg | No significant cAMP increase
